Earlier results as cited in US20230172943A1 (Mylan Specialty L.P., priority 2020, published 2023).

Conditions: orally delivered, humans

Q: Which “Tmax (time to reach maximum concentration)” value does the source give for Cc1cnc(NC(=O)C2=C(O)c3ccccc3S(=O)(=O)N2C)s1 [meloxicam, 4-hydroxy-2-methyl-N-(5-methyl-2-thiazolyl)-2H-1,2-benzothiazine-3-carboxamide-1,1-dioxide] here?
A: 4 to 6 h

Q: What about the “time to reach the therapeutic concentration that enables the onset of action” value of the same molecule?
A: 2 to 3 h
